Results as given in the kinase profiling compilation of Christmann-Franck et al. (2016).

Key:
Experiment in all cases: KINOMEscan competition binding
Settings in all cases: compound 10.0 µM
[1] = biological target: CDKL5 (human) (UniProt O76039)
[2] = biological target: LCK (human) (UniProt P06239)
[3] = biological target: PDGFRA (human) (UniProt P16234)
[4] = biological target: FLT4 (human) (UniProt P35916)
[5] = biological target: JAK1 JH1 catalytic (human) (UniProt P23458)
[6] = biological target: MLTK (human) (UniProt Q9NYL2)
[7] = biological target: TAOK2 (human) (UniProt Q9UL54)
[8] = biological target: FGR (human) (UniProt P09769)
[9] = biological target: MUSK (human) (UniProt O15146)
[10] = biological target: SRPK2 (human) (UniProt P78362)
[11] = biological target: PIP4K2C (human) (UniProt Q8TBX8)
[12] = biological target: ROCK1 (human) (UniProt Q13464)
[13] = biological target: CDK11B (human) (UniProt P21127)
[14] = biological target: GRK1 (human) (UniProt Q15835)
[15] = biological target: STK38L (human) (UniProt Q9Y2H1)
[16] = system: EGFR (human), P00533 [752-759 del]
[17] = biological target: YES1 (human) (UniProt P07947)
[18] = biological target: CLK3 (human) (UniProt P49761)
[19] = biological target: GRK7 (human) (UniProt Q8WTQ7)
[20] = biological target: CaMK1 (human) (UniProt Q14012)
[21] = biological target: PTK2B (human) (UniProt Q14289)
[22] = biological target: MKNK2 (human) (UniProt Q9HBH9)
[23] = biological target: MAP3K10 (human) (UniProt Q02779)
[24] = biological target: SIK2 (human) (UniProt Q9H0K1)
[25] = biological target: MAP2K6 (human) (UniProt P52564)
[26] = biological target: CDKL2 (human) (UniProt Q92772)
[27] = biological target: TLK1 (human) (UniProt Q9UKI8)
[28] = biological target: YSK4 (human) (UniProt Q56UN5)
[29] = biological target: GRK4 (human) (UniProt P32298)
[30] = biological target: FGFR2 (human) (UniProt P21802)
[31] = biological target: EPHA2 (human) (UniProt P29317)
[32] = biological target: STK33 (human) (UniProt Q9BYT3)
[33] = biological target: NTRK2 (human) (UniProt Q16620)
[34] = biological target: STK24 (human) (UniProt Q9Y6E0)
[35] = biological target: CDK4 CCND3 (human) (UniProt P11802+P30281)
[36] = system: CPK1 (P.falciparum)
[37] = biological target: CDK16 (human) (UniProt Q00536)
[38] = biological target: PKN3 (M.tuberculosis) (UniProt Q6P5Z2)
[39] = biological target: CDK18 (human) (UniProt Q07002)
[40] = system: RET (human), P07949 [V804M]

GRK7 (human), sequence (Q8WTQ7 whole entry, looked up): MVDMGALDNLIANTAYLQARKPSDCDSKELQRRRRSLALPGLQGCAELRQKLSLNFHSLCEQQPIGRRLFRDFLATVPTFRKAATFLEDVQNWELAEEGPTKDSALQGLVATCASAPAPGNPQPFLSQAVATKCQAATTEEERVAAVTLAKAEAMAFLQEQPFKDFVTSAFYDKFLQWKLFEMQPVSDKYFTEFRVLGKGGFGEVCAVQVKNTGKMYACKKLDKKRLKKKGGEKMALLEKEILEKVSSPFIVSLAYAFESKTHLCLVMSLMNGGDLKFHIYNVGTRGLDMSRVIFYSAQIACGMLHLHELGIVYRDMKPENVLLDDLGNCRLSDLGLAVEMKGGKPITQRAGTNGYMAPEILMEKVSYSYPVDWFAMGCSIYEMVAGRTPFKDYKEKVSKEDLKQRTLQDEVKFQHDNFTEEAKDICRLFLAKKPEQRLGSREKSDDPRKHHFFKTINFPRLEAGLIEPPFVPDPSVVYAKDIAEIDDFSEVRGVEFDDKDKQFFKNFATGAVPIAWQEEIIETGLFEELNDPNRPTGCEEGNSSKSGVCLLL
YSK4 (human), sequence (Q56UN5 whole entry, looked up): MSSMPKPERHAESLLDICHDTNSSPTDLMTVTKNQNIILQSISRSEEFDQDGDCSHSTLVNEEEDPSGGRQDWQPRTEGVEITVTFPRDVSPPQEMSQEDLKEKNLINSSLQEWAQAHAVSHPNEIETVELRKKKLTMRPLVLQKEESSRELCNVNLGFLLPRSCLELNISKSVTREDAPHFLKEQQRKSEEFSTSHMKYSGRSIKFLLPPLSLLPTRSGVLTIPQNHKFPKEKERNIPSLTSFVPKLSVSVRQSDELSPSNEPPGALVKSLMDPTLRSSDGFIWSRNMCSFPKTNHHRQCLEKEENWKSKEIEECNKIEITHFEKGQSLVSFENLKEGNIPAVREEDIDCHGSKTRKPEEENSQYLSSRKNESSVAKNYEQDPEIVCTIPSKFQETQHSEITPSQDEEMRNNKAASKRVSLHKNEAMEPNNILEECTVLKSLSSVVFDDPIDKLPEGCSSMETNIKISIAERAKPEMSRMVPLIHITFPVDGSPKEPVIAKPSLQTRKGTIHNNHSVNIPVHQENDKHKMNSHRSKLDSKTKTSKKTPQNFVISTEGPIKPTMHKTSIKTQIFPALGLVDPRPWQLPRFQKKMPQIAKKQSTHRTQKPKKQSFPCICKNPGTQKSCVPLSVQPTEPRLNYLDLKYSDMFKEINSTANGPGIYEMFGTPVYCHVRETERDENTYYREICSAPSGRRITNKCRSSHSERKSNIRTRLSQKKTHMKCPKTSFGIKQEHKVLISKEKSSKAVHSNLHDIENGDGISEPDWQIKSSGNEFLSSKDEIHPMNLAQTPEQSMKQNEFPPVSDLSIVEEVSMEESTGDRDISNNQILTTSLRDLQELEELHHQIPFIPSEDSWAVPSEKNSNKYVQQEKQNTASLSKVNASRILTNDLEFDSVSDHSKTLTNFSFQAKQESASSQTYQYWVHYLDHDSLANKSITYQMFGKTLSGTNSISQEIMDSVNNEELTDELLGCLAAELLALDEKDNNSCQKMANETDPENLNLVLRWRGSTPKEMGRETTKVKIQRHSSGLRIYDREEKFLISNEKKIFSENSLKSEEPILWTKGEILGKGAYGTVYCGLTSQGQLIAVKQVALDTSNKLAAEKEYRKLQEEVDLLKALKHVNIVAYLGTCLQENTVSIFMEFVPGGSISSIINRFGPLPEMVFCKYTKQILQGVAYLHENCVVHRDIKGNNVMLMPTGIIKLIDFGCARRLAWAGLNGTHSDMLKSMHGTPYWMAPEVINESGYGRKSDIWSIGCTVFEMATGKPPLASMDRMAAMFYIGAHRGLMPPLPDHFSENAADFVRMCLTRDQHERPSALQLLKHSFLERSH
ROCK1 (human), sequence (Q13464 whole entry, looked up): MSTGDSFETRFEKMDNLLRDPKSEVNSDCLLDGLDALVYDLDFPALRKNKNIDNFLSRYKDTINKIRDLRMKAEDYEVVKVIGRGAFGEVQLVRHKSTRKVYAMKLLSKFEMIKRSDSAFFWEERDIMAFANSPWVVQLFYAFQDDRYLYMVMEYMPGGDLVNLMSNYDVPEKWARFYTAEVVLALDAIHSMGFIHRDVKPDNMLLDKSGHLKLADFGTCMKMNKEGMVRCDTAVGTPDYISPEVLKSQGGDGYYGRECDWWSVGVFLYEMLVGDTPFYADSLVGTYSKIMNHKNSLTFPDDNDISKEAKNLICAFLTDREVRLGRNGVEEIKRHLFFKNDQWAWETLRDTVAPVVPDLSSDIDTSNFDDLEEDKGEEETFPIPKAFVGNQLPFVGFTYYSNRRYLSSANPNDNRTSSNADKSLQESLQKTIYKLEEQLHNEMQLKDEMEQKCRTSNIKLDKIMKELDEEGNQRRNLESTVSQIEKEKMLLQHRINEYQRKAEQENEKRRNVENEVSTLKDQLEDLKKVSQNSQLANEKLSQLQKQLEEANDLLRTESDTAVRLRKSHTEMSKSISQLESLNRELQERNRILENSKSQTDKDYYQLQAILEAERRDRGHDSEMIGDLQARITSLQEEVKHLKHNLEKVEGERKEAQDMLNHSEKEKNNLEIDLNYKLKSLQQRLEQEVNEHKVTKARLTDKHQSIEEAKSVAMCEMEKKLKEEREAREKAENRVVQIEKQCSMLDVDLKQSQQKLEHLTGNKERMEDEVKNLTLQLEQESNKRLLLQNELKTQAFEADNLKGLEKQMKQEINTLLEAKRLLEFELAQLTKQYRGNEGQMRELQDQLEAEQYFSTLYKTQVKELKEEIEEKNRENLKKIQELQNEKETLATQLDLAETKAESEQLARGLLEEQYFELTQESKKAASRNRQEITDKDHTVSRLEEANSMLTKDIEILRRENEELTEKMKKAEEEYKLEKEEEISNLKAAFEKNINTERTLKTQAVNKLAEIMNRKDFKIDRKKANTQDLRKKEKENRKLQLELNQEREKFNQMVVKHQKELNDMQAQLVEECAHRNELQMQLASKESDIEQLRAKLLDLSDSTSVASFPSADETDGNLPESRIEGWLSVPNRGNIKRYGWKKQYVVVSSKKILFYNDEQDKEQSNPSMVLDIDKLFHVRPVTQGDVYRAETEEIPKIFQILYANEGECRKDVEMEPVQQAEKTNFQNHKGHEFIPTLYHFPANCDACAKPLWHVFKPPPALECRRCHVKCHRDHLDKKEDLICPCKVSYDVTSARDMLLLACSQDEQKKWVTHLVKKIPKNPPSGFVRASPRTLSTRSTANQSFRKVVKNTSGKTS
FGR (human), sequence (P09769 whole entry, looked up): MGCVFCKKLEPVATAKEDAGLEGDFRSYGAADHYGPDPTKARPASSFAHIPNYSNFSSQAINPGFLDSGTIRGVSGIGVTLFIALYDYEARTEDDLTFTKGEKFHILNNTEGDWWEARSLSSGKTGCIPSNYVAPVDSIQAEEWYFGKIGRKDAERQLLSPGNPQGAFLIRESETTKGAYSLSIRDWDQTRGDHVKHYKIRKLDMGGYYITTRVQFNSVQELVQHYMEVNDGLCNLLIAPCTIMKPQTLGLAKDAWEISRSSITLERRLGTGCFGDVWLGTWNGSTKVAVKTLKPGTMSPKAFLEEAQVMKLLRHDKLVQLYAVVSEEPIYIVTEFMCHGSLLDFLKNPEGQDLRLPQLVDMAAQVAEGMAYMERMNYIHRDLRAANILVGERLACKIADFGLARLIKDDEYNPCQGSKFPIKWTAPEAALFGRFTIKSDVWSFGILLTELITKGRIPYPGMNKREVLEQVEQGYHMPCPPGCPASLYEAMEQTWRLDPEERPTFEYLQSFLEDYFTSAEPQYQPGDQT
CDKL2 (human), sequence (Q92772 whole entry, looked up): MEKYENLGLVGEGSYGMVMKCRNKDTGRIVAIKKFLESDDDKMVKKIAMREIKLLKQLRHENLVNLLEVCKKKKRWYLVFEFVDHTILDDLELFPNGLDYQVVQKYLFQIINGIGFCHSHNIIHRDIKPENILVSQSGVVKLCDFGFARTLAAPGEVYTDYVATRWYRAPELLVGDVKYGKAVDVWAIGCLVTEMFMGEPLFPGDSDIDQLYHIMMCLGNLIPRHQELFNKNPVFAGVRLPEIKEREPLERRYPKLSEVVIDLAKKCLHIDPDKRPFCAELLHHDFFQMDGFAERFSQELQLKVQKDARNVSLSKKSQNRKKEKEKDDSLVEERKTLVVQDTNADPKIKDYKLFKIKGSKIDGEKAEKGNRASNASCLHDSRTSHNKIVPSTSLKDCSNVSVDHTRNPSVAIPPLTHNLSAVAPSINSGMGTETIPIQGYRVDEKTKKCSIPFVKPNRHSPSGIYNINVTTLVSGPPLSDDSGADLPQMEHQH
TLK1 (human), sequence (Q9UKI8 whole entry, looked up): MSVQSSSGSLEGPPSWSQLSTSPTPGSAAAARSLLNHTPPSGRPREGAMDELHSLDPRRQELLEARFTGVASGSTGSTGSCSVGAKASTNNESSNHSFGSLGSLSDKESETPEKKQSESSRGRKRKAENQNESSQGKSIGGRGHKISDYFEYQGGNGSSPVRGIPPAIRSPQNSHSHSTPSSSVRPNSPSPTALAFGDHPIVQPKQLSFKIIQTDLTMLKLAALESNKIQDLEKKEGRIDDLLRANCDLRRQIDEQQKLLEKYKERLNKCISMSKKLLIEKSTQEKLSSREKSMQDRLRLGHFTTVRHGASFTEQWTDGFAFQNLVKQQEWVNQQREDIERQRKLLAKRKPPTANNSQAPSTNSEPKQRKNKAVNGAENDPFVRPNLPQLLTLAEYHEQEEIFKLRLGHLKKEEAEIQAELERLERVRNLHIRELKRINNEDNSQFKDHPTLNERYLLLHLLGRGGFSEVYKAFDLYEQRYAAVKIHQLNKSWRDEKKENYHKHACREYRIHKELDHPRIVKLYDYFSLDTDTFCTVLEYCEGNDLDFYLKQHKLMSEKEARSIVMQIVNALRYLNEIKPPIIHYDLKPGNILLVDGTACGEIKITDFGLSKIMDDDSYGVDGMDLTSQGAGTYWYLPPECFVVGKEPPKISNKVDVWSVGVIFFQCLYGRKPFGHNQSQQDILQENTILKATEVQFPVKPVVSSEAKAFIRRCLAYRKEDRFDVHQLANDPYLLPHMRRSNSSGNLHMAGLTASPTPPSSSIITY

Row | SMILES | kinase still bound, per cent of control [1] | kinase still bound, per cent of control [3] | kinase still bound, per cent of control [4] | kinase still bound, per cent of control [5] | kinase still bound, per cent of control [6] | kinase still bound, per cent of control [7] | kinase still bound, per cent of control [8] | kinase still bound, per cent of control [9] | kinase still bound, per cent of control [10] | kinase still bound, per cent of control [11] | kinase still bound, per cent of control [12] | kinase still bound, per cent of control [13] | kinase still bound, per cent of control [14] | kinase still bound, per cent of control [15] | kinase still bound, per cent of control [17] | kinase still bound, per cent of control [18] | kinase still bound, per cent of control [19] | kinase still bound, per cent of control [20] | kinase still bound, per cent of control [21] | kinase still bound, per cent of control [22] | further results
1 | N#CCNC(=O)c1ccc(-c2ccnc(Nc3ccc(N4CCOCC4)cc3)n2)cc1 | 65% | 100% | 48% | 13% | 100% | 100% | 92% | 100% | 30% | 54% | 2.9% | 66% | 100% | 71% | 91% | 91% | 100% | 59% | 86% | 1.2% | kinase still bound, per cent of control [2]: 90%; kinase still bound, per cent of control [16]: 72%; kinase still bound, per cent of control [23]: 62%; kinase still bound, per cent of control [24]: 14%; kinase still bound, per cent of control [25]: 77%; kinase still bound, per cent of control [26]: 69%; kinase still bound, per cent of control [27]: 59%; kinase still bound, per cent of control [28]: 1.7%; kinase still bound, per cent of control [29]: 10%; kinase still bound, per cent of control [30]: 58%; kinase still bound, per cent of control [31]: 100%; kinase still bound, per cent of control [32]: 98%; kinase still bound, per cent of control [33]: 67%; kinase still bound, per cent of control [34]: 64%; kinase still bound, per cent of control [35]: 13%; kinase still bound, per cent of control [36]: 100%; kinase still bound, per cent of control [37]: 21%; kinase still bound, per cent of control [38]: 8.7%
2 | COCC(=O)NC/C=C/c1ccc2ncnc(Nc3ccc(Oc4ccc(C)nc4)c(C)c3)c2c1 | 100% | 56% | 98% | 100% | 76% | 100% | 89% | 100% | 92% | 84% | 100% | 100% | 100% | 100% | 65% | 100% | 100% | 72% | 80% | 1.4% | kinase still bound, per cent of control [2]: 59%; kinase still bound, per cent of control [23]: 100%; kinase still bound, per cent of control [24]: 84%; kinase still bound, per cent of control [25]: 93%; kinase still bound, per cent of control [26]: 91%; kinase still bound, per cent of control [27]: 79%; kinase still bound, per cent of control [28]: 100%; kinase still bound, per cent of control [29]: 100%; kinase still bound, per cent of control [30]: 100%; kinase still bound, per cent of control [31]: 100%; kinase still bound, per cent of control [33]: 100%; kinase still bound, per cent of control [34]: 90%; kinase still bound, per cent of control [35]: 100%; kinase still bound, per cent of control [36]: 25%; kinase still bound, per cent of control [39]: 99%; kinase still bound, per cent of control [37]: 74%; kinase still bound, per cent of control [38]: 23%
3 | CNC(=O)c1cc(Oc2ccc(NC(=O)Nc3ccc(Cl)c(C(F)(F)F)c3)cc2)ccn1 | 56% | 0% | 0% | 50% | 4.2% | 1.6% | 53% | 0.1% | 96% | 100% | 74% | 98% | 100% | 100% | 69% | 91% | 100% | 82% | 100% | 0.1% | kinase still bound, per cent of control [23]: 73%; kinase still bound, per cent of control [24]: 97%; kinase still bound, per cent of control [25]: 76%; kinase still bound, per cent of control [26]: 0.3%; kinase still bound, per cent of control [27]: 100%; kinase still bound, per cent of control [28]: 0.4%; kinase still bound, per cent of control [29]: 100%; kinase still bound, per cent of control [30]: 14%; kinase still bound, per cent of control [31]: 18%; kinase still bound, per cent of control [32]: 33%; kinase still bound, per cent of control [34]: 97%; kinase still bound, per cent of control [35]: 79%; kinase still bound, per cent of control [36]: 0.95%; kinase still bound, per cent of control [39]: 70%; kinase still bound, per cent of control [40]: 0%; kinase still bound, per cent of control [37]: 72%; kinase still bound, per cent of control [38]: 100%
4 | COc1cc2ncn(-c3cc(OCc4ccccc4C(F)(F)F)c(C(N)=O)s3)c2cc1OC | 73% | 58% | 1.4% | 100% | 74% | 100% | 63% | 100% | 34% | 26% | 4.7% | 100% | 96% | 100% | 97% | 83% | 52% | 100% | 72% | 76% | kinase still bound, per cent of control [2]: 34%; kinase still bound, per cent of control [16]: 100%; kinase still bound, per cent of control [23]: 98%; kinase still bound, per cent of control [24]: 26%; kinase still bound, per cent of control [25]: 85%; kinase still bound, per cent of control [26]: 90%; kinase still bound, per cent of control [27]: 96%; kinase still bound, per cent of control [28]: 34%; kinase still bound, per cent of control [29]: 18%; kinase still bound, per cent of control [31]: 44%; kinase still bound, per cent of control [32]: 67%; kinase still bound, per cent of control [33]: 59%; kinase still bound, per cent of control [34]: 87%; kinase still bound, per cent of control [35]: 100%; kinase still bound, per cent of control [36]: 75%; kinase still bound, per cent of control [39]: 83%; kinase still bound, per cent of control [40]: 62%; kinase still bound, per cent of control [37]: 100%; kinase still bound, per cent of control [38]: 76%
